According to ChEMBL document CHEMBL5614404, “Optimization of potent, broad-spectrum, and specific anti-influenza compounds targeting RNA polymerase PA-PB1 heterodimerization” (Eur J Med Chem, 2024):
pEC50, pIC50, pKd: −log10 of the molar value. Values after ≈ are worked out from the molar mass of the structure shown. Active and inactive are the calls of the source. The calls are words filed in the database; no cut-off is given here.

What was measured:
Influenza A virus [1] = assay: Antiviral activity against Amantadine/Oseltamivir-sensitive Influenza A virus Solomon Islands/03/2006 (H1N1) infected in MDCK cells by plaque reduction assay; assay type: functional, organism-based
[2] = Inhibition of heterodimerization of C-terminal His-tagged Influenza virus PA (239 to 716 residues)/N-terminal GST-tagged Influenza virus PB1 (1 to 25 residues) incubated overnight by ELISA; set-up: species or system unidentified influenza virus
Influenza B virus [3] = assay: Antiviral activity against Influenza B virus Brisbane/60/2008 infected in MDCK cells by plaque reduction assay; assay type: functional, organism-based; conditions: Brisbane/60/2008, MDCK
[4] = Cytotoxicity against MDCK cells by Neutral red uptake assay; assay type: toxicity, cell-based, Canis lupus familiaris; conditions: dog
[5] = Cytotoxicity against MDCK cells incubated for 48 hrs by MTT assay; assay type: toxicity, cell-based, Canis lupus familiaris; conditions: dog
[6] = Inhibition of 6His-tagged Influenza virus PA (239 to 716 residues) extracted from Escherichia coli BL21(DE3)pLysS/GST-tagged Influenza virus PB1 (1 to 25 residues) by ELISA; set-up: species or system unidentified influenza virus
Influenza A virus [7] = assay: Antiviral activity against Influenza A virus PR/8/34 infected in MDCK cells incubated for 48 hrs by plaque reduction assay; assay type: functional, organism-based; conditions: Influenza A virus, PR/8/34, MDCK, 48 h
[8] = Selectivity index, ratio of CC50 for MDCK cells to EC50 for Influenza A virus PR/8/34 infected in MDCK cells; assay type: toxicity, cell-based; conditions: dog, read-out: Ratio CC50/EC50
HEK293T = assay: Inhibition of heterodimerization of Influenza virus GFP-fused PA/PB1 transfected in HEK293T cells assessed as impaired nuclear import at 0.5 uM incubated for 14 hrs by CLSM analysis; assay type: cell-based; conditions: unidentified influenza virus
[9] = Cytotoxicity against HEK293T cells incubated for 48 hrs by MTT assay; assay type: toxicity, cell-based, HEK-293T; conditions: human
[10] = tested on: unidentified influenza virus; assay: Thermal stabilization of C-terminal 6His-tagged Influenza virus PA (239 to 716 residues) extracted from Escherichia coli BL21(DE3)pLysS/N-terminal Influenza virus PB1 (1 to 25 residues) assessed as shift in melting temperature by nano-DSF assay
Influenza A virus [11] = assay: Antiviral activity against Influenza A virus PR/8/34 (H1N1) infected in MDCK cells incubated for 48 hrs by plaque reduction assay; assay type: functional, organism-based
Influenza A virus [12] = assay: Antiviral activity against Influenza A virus Wisconsin/67/05 (H3N2) infected in MDCK cells incubated for 48 hrs by plaque reduction assay; assay type: functional, organism-based
Influenza B virus [13] = assay: Antiviral activity against ancestral Influenza B virus Lee/40 infected in MDCK cells incubated for 48 hrs by plaque reduction assay; assay type: functional, organism-based; conditions: Lee/40, MDCK
Influenza B virus [14] = assay: Antiviral activity against Influenza B virus Malaysia/2506/04 infected in MDCK cells incubated for 48 hrs by plaque reduction assay; assay type: functional, organism-based; conditions: Malaysia/2506/04, MDCK
Dengue virus = assay: Antiviral activity against DENV infected in human Huh-7 cells assessed as inhibition of viral replication; assay type: functional, organism-based
West Nile virus = assay: Antiviral activity against WNV infected in human Huh-7 cells assessed as inhibition of viral replication; assay type: functional, organism-based
SARS-CoV-2 = assay: Antiviral activity against SARS CoV-2 infected in human Caco-2 cells assessed as inhibition of viral replication; assay type: functional, organism-based; conditions: Severe acute respiratory syndrome coronavirus 2
[15] = (§1) Antiviral activity against HPIV infected in human A549 cells assessed as inhibition of viral replication; assay type: functional, cell-based
Huh-7 = assay: Cytotoxicity against human Huh-7 cells; assay type: toxicity, cell-based
Caco-2 = assay: Cytotoxicity against human Caco-2 cells; assay type: toxicity, cell-based
[16] = (§2) Cytotoxicity against human A549 cells; assay type: toxicity, cell-based; conditions: A549 cells
[17] = Thermodynamic solubility in aqueous media incubated for 24 hrs by shake flask method; assay type: physicochemical; conditions: read-out: Therm_solubility
[18] = Apparent permeability of compound incubated for 5 hrs by PAMPA; assay type: ADME
[19] = Permeability of compound assessed as membrane retention incubated for 5 hrs by PAMPA; assay type: ADME
[20] = Metabolic stability in human liver microsomes assessed as unmetabolized compound at 50 uM incubated for 1 hr in presence of NADPH by UV/LC-MS analysis; assay type: ADME, Microsome; conditions: read-out: Stability
[21] = Metabolic stability in rat plasma at 2 mM measured upto 1440 mins by UV/LC-MS analysis; assay type: ADME, cell-free; conditions: read-out: Stability
[22] = Inhibition of heterodimerization of C-terminal His-tagged Influenza virus PA (239 to 716 residues)/N-terminal GST-tagged Influenza virus PB1 (1 to 25 residues) by ELISA; set-up: species or system unidentified influenza virus
Influenza A virus [23] = assay: Antiviral activity against Influenza A virus WSN/33 (H1N1) clinical isolate infected in MDCK cells expressing ST6Gal by crystal violet staining based plaque reduction assay; assay type: functional, organism-based
Influenza A virus [24] = assay: Antiviral activity against Oseltamivir-sensitive Influenza A virus Denmark/524/2009 (H1N1) clinical isolate infected in MDCK cells expressing ST6Gal by crystal violet staining based plaque reduction assay; assay type: functional, organism-based
Influenza A virus [25] = assay: Antiviral activity against Influenza A virus Switzerland/9715293/2013 (H3N2) clinical isolate infected in MDCK cells expressing ST6Gal by crystal violet staining based plaque reduction assay; assay type: functional, organism-based
Influenza A virus [26] = assay: Antiviral activity against Influenza A virus Texas/04/2009 (H1N1) clinical isolate infected in MDCK cells expressing ST6Gal by crystal violet staining based plaque reduction assay; assay type: functional, organism-based
Influenza A virus [27] = assay: Antiviral activity against Influenza A virus Washington/29/2009 (H1N1) clinical isolate infected in MDCK cells expressing ST6Gal by crystal violet staining based plaque reduction assay; assay type: functional, organism-based
Influenza B virus [28] = assay: Antiviral activity against Influenza B virus Wisconsin/1/2010 clinical isolate infected in MDCK cells expressing ST6Gal by crystal violet staining based plaque reduction assay; assay type: functional, organism-based; conditions: Wisconsin/1/2010, MDCK
Influenza B virus [29] = assay: Antiviral activity against Influenza B virus Memphis/20/1996 clinical isolate infected in MDCK cells expressing ST6Gal by crystal violet staining based plaque reduction assay; assay type: functional, organism-based; conditions: Memphis/20/1996, MDCK
Influenza B virus [30] = assay: Antiviral activity against Influenza B virus Utah/09/2014 clinical isolate infected in MDCK cells expressing ST6Gal by crystal violet staining based plaque reduction assay; assay type: functional, organism-based; conditions: Utah/09/2014, MDCK
Influenza B virus [31] = assay: Antiviral activity against Influenza B virus Phuket/3073/2013 clinical isolate infected in MDCK cells expressing ST6Gal by crystal violet staining based plaque reduction assay; assay type: functional, organism-based; conditions: Phuket/3073/2013, MDCK
Influenza B virus [32] = assay: Antiviral activity against Influenza B virus Brisbane/60/2008 clinical isolate infected in MDCK cells expressing ST6Gal by crystal violet staining based plaque reduction assay; assay type: functional, organism-based; conditions: Brisbane/60/2008, MDCK
[33] = Cytotoxicity against MDCK cells assessed as reduction in cell viability incubated for 48 hrs by Neutral red uptake assay; assay type: toxicity, cell-based, Canis lupus familiaris; conditions: dog
[34] = Binding affinity to RED-NT650-NHS-labeled C-terminal 6His-tagged recombinant Influenza virus PA (239 to 716 residues) extracted from Escherichia coli BL21(DE3)pLysS assessed as dissociation constant by MST assay; set-up: species or system unidentified influenza virus
A549 [35] = assay: as §1; assay type: functional, cell-based
A549 [36] = assay: as §2; assay type: toxicity, cell-based; conditions: a549
[37] = Metabolic stability in rat plasma at 2 mM measured for 5 to 60 mins by UV/LC-MS analysis; assay type: ADME, cell-free; conditions: time 5-60 min, read-out: Stability
[38] = Metabolic stability in rat plasma at 2 mM measured after 1440 mins by UV/LC-MS analysis; assay type: ADME, cell-free; conditions: read-out: Stability

SMILES | CC50 at 48 h [5] [nM] | pIC50 [6] | pEC50 (Influenza A virus [7]) | selectivity ratio [8] | inhibition (HEK293T) | CC50 at 48 h [9] [nM] | Activity [10] | pEC50 (Influenza A virus [11]) | pEC50 (Influenza A virus [12]) | pEC50 (Influenza B virus [13]) | pEC50 (Influenza B virus [14]) | Activity (Dengue virus) | Activity (West Nile virus) | Activity (SARS-CoV-2) | Activity (Huh-7) | Activity (Caco-2) | solubility thermodynamic at 24 h [17] [µM] | Papp at 5 h [18] [×10⁻⁶ cm/s] | Activity [19] [%] | remaining at 1 h, 50 µM [20] [%] | further results
O=C1C(c2ncc([N+](=O)[O-])s2)CC[C@@H]2CCCC[C@@H]12 (some centres undefined) | – | – | – | – | – | – | – | – | – | – | – | – | – | – | – | – | – | – | – | – | pEC50 (Influenza A virus [1]): 6.03; pIC50 [2]: 4.73; pEC50 (Influenza B virus [3]): 6.03; CC50 [4]: > 300000 nM
O=C(Nc1sc2c(c1C(=O)Nc1ccccc1O)CCCCC2)c1ccc([N+](=O)[O-])cc1O | 224000 | 4.58 | 7.05 | 2520 | Active | > 50000 | Active | 7.05 | 7.27 | 7.06 | 7.06 | inactive | inactive | inactive | Non-Toxic | Non-Toxic | 49.8 (≈ 23.3 µg/mL) | 0.78 | 2.5 | 93.8 | pEC50 [15]: 4.66; CC50 [16]: > 40000 nM; remaining at 24 h, 2000 µM [21]: ~100%
C[C@@H](c1ccccc1)n1nnnc1[C@H](c1ccsc1)N1CCC(n2c(=O)[nH]c3ccccc32)CC1 | – | – | – | – | – | – | – | – | – | – | – | – | – | – | – | – | – | – | – | – | pIC50 [22]: 5.12; pEC50 (Influenza A virus [23]): 6.22; pEC50 (Influenza A virus [24]): 6.22; pEC50 (Influenza A virus [25]): 6.22; pEC50 (Influenza A virus [26]): 6.22; pEC50 (Influenza A virus [27]): 6.22; pEC50 (Influenza B virus [28]): 6.22; pEC50 (Influenza B virus [29]): 6.22; pEC50 (Influenza B virus [30]): 6.22; pEC50 (Influenza B virus [31]): 6.22; pEC50 (Influenza B virus [32]): 6.22; CC50 at 48 h [33]: > 300000 nM
N#Cc1ccc(C(=O)Nc2sc3c(c2C(=O)Nc2ccccc2O)CCCCC3)cc1 | > 250000 | 4.71 | 6.42 | > 667 | Active | > 50000 | Active | 6.42 | 6.66 | 6.52 | 6.46 | inactive | inactive | inactive | Non-Toxic | Non-Toxic | 17.6 (≈ 7.59 µg/mL) | 3.48 | 57 | 93.3 | pKd [34]: 5.24; Activity (A549 [35]): inactive; Activity (A549 [36]): Non-Toxic; remaining at 2000 µM [37]: 95%; remaining at 24 h, 2000 µM [38]: 81%
